Columns and labels:
TDP-43 aggregates = TDP-43 aggregates (Homo sapiens, UniProt Q13148); assay: Micro-autoradiography staining in brain sections from patients with FTD; format: binding; set-up: from tissue; host or cells: frozen post-mortem human brain sections (FTLD-TDP type A and type B; non-demented controls in the classical autoradiography); conditions: FTLD-TDP type A brain sections; 120 nM
Procedure: All tissues were collected from donors for or from whom a written informed consent for a brain autopsy and the use of the material and clinical information for research purposes had been obtained by the respective brain banks. All samples were anonymized and coded. Frozen brain tissue blocks with confirmed TDP-43 pathology upon autopsy were processed using a cryotome to generate sections of 10 μm in thickness and mounted on glass slides. Sections were kept at −80° C. until use.
Brain sections were immunostained using a commercially available antibody, specific for phosphorylated serine at amino acid 409/410 (anti-pTDP-43 pS409/410, Biolegend, 829901). Sections were fixed for 15 minutes at 4° C. with 4% formaldehyde (Sigma, 252549) and washed three times for height minutes with 1×PBS (Dulbecco's phosphate buffered saline, Sigma D1408) at room temperature. Next, sections were saturated and permeabilized in blocking buffer (PBS, 10% normal goat serum (NGS), 0.25% Triton X-100) for one hour at room temperature and incubated overnight at 4° C. with primary antibody against pTDP-43 (diluted at 1/500 in PBS, 5% NGS, 0.25% Triton X-100). The following day, sections were washed three times for height minutes with 1×PBS before incubation with a secondary, AlexaFluor633-labeled goat-anti-rat antibody (Invitrogen, A-21094, diluted at 1/500 in PBS) for 45 minutes at room temperature. Following incubation with […] antibodies the sections were washed three times in PBS before being processed further.
For micro-autoradiography, tritiated test compound ([^3H]-Compound 1, [^3H]-Compound 9 or [^3H]-Compound 17 respectively) was incubated on the sections at 120 nM in 50 mM Tris buffer pH 7.4 for 45 minutes at room temperature. Sections were then washed as follows: once in ice-cold 50 mM Tris-HCl pH 7.4 buffer for one minute, twice in ice-cold 70% ethanol for one minute, once in ice-cold 50 mM Tris-HCl pH 7.4 buffer for one minute and finally rinsed briefly in ice-cold distilled water. Sections were subsequently dried for one hour under a stream of air and then exposed to Ilford Nuclear Emulsion Type K5 (Agar Scientific, AGP9281) for ten days at 4° C. in a light-proof slide storage box. The sections were developed by immersing them successively in the following solutions: 1.) Ilford Phenisol Developer (1:5 dilution in H2O, Agar Scientific, AGP9106) for four minutes, 2.) Ilfostop solution (1:20 dilution in H2O, Agar Scientific, AGP9104) for two minutes, 3.) Ilford Hypam Fixer (1:5 dilution in H2O, Agar Scientific, AGP9183) for four minutes and finally rinsed with H2O for 10 minutes.
For image acquisition, sections were mounted using ProLong Gold Antifade reagent (Invitrogen P36930) and imaged on a Panoramic250 Slide Scanner (3DHistech) with a 40× objective capturing brightfield and fluorescent images separately or on a Panoramic Scan II (3DHistech) with a 20× objective. The Visiopharm image analysis software suite was used to align the fluorescent image with the brightfield image.

[1] = biological target: human FTD Type A sarkosyl-insoluble brain extracts (Homo sapiens, UniProt Q13148); assay: Kd determination by micro-radiobinding assay on FTD Type A extracts; format: binding; conditions: tritiated compound 1.29 to 300 nM
human FTD Type A sarkosyl-insoluble brain extracts, sequence (Q13148 263-414 limits assumed): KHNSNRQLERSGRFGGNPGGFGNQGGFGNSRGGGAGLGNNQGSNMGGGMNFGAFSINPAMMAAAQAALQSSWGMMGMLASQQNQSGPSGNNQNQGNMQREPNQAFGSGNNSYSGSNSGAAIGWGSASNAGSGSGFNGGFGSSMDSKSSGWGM
Procedure: Human brain extracts were prepared as described in Laferriere et al., 2019, Nature Neurosc. A sample of brain tissue (frontal or temporal cortex) was homogenized at 1:4 (w/v) ratio in the homogenization-solubilization (HS) buffer at 4° C. using tissue homogenizer (Precellys) with CKmix homogenization tubes. The following sequence was used for homogenization: 3 cycles of 30 seconds at 5000 rpm (with 15 seconds pause between each cycle). Homogenized samples were aliquoted and stored at −80° C. in 1.5 mL low protein binding tubes.
Brain homogenates were thawed on ice and resuspended in HS buffer to obtain a final concentration of 2% sarkosyl, 1 unit/μL Benzonase and 1 mM MgCl2. The samples were then incubated at 37° C. under constant shaking at 600 rpm on a thermomixer for 45 minutes (min). The supernatants were collected in a new tube (sarkosyl-soluble fraction, S1). The pellet was resuspended in 1000 μL of myelin floatation buffer and centrifuged at 20,000 g for 60 min at 4° C. The supernatant was carefully removed to remove all the floating lipids. This step was repeated if all the lipids could not be removed in a single step. The pellet was subsequently washed with Phosphate-Buffered Saline (PBS) and centrifuged for 30 min at 20,000 g at 4° C. The final pellet was resuspended in 200 μL PBS and stored at −80° C. (sarkosyl-insoluble fraction). The samples were analyzed by immunoblotting in denaturing conditions.
Human FTD sarkosyl-insoluble brain extracts were spotted onto microarray slides. The slides were incubated with [^3H]-Compounds 1, 7, 8, 9, 15, 16 and 17 in a range of concentrations, varying from 1.29 to 300 nM. After incubation, slides were washed and scanned by a real-time autoradiography system (BeaQuant, ai4R). Quantification of the signal was performed by using the Beamage image analysis software (ai4R). Non-specific signal was determined with an excess of non-radiolabeled compound 1, 7, 8, 9, 15, 16 and 17 (1 μM), respectively, and specific binding was calculated by subtracting the non-specific signal from the total signal.
The Kd (Dissociation constant) and R^2 (parameter ranging between 0.0 and 1.0 that quantifies the goodness of fit, and the best curve fit obtained with value of 1.0) were obtained by fitting the specific binding data with non-linear regression analysis, using a one-site specific binding model in GraphPad Prism8.

TDP-43 aggregates, sequence (Q13148 whole entry): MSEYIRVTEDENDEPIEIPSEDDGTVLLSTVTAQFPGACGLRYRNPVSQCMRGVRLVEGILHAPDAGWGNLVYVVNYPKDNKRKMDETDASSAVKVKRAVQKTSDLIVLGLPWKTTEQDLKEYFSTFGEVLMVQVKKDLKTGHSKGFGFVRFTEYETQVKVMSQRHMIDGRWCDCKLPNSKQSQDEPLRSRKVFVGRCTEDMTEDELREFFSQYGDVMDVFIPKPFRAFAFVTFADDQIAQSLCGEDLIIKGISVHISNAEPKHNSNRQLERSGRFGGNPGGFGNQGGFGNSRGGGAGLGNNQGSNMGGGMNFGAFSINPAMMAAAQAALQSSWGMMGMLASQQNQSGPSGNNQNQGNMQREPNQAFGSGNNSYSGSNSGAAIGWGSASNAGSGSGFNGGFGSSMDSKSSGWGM

[3H]c1cncc(N2CCc3nc(-c4cc([3H])c(N5CCCC5)nc4F)sc3C2=O)c1 [[^3H]-Compound 9, Tritiated 2-(2-fluoro-6-(pyrrolidin-1-yl)pyridin-3-yl)-5-(pyridin-3-yl)-6,7-dihydrothiazolo[5,4-c]pyridin-4(5H)-one]
Micro-autoradiography silver grain signal versus pTDP-43 immunostaining (TDP-43 aggregates): colocalization with pTDP-43 aggregates | Kd [1]: 26 nM
